Reference: PMC6114103, “17-DMAG inhibits the multiplication of several Babesia species and Theileria equi on in vitro cultures, and Babesia microti in mice” (International Journal for Parasitology: Drugs and Drug …, 2018)

What was measured:
[1] = introduction, background statement; ref Jilani et al., 2013; cited from earlier work
[2] = system: NIH/3T3 cells; test: cytotoxicity (drug-exposure viability) assay, CCK-8; format: cell-based, mouse
Method: (§1) Each medium was supplemented with 10% fetal bovine serum, 0.5% penicillin/streptomycin (Gibco, Life Technologies, USA), and an additional 1% glutamine. The medium was changed every 3–4 days and incubated until approximately 80% confluent. The cells were free from mycoplasma contamination after being checked by staining with DAPI (Sigma-Aldrich, USA). The detachment of cells from the culture flask was done using TrypLE™ Express (Gibco, Life Technologies, USA) after washing two times with Dulbecco's phosphate-buffered saline (DPBS). Subsequently, the counting of viable cells was carried out using a Neubauer improved C-Chip (NanoEntek Inc., Korea) after staining with 0.4% trypan blue solution. The drug-exposure viability assay was performed in accordance with the recommendation of the Cell Counting Kit-8 (CCK-8, Dojindo, Japan). Briefly, the assay was carried out using a 96-well plate at 37 °C in a humidified incubator with 5% CO2. One hundred microliters of cells at a density of 5 × 10^4 cells/ml was seeded per well and allowed to attach to the plate for 24 h. […] The exposure of drugs was carried out for 24 h, followed by the addition of 10 μl of CCK-8. The plate was further incubated for 3 h, and the absorbance was measured at 450 nm using a microplate reader.

[3] = system: MDBK cells; test: as above; format: cell-based, bovine
Method: as §1

[4] = system: B. divergens (Germany strain); test: in vitro multiplication inhibition assay (SYBR Green I fluorescence, 96 h), single drugs and two-drug combinations; format: cell-based, Babesia divergens; details: B. divergens, 96 h, triplicate, mean ± SD; read-out: IC50 on in vitro culture of parasites
Method: (§2) Babesia parasite cultures were maintained using a microaerophilic stationary-phase culture system ([Levy and Ristic, 1980]; [Avarzed et al., 1997]; [Igarashi et al., 1998]). Briefly, bovine Babesia parasites were grown in bovine red blood cells (RBC) in the specific complete medium for each species. The medium for B. bovis (Texas strain) contained GIT medium supplemented with 10% bovine serum, while the medium for B. bigemina (Argentina strain) and B. divergens (Germany strain) was Medium 199 and RPMI 1640 medium, respectively, supplemented with 40% bovine serum ([Rizk et al., 2016]). B. caballi (USDA strain) was grown using equine RBC in GIT medium supplemented with 10% equine serum. T. equi (USDA strain) was grown in equine RBC in M199 medium supplemented with 40% equine serum and hypoxanthine (MP Biomedicals, USA) at a final concentration of 13.6 μg/ml. All of the media included 60 U/ml penicillin G, 60 μg/ml streptomycin, and 0.15 μg/ml amphotericin B (Sigma-Aldrich, USA). The cultures were incubated at 37 °C in a humidified chamber with an atmosphere of 5% CO2, 5% O2, and 90% N2.
(§3) The assays were conducted in accordance with the protocol described previously with modification ([Guswanto et al., 2014]). Briefly, the cultures of B. bovis, B. bigemina, B. divergens, B. caballi, and T. equi with a parasitemia of 8%, 3%, 10%, 4%, and 9%, respectively, were harvested and adjusted to 1% parasitemia with fresh RBC before the inhibition assay. The 60 inner wells of a 96-well plate were used in the assay, while the peripheral wells were filled with sterile distillate water to reduce evaporation during incubation. To each well in triplicate, 2.5 μl of infected RBC (5 μl for B. divergens, B. caballi, and T. equi) was added and mixed with a culture medium containing the drug to a total volume of 100 μl. The stock solution of 17-DMAG, DA, and AV was dissolved in a culture medium at various concentrations using two-fold dilution. A culture medium containing DMSO at a final concentration of 0.2% was added to the well with infected RBC as a positive control and to the well with uninfected RBC as a negative control. Furthermore, a drug combination assay was conducted in parallel with the single drug assay at the constant ratio in accordance with the Chou–Talalay method ([Chou, 2006]). In the same plate with a single drug inhibition assay, a two-drug combination (DA+17-DMAG, DA + AV, and 17-DMAG + AV) at concentrations of 0.25 x IC50, 0.5 x IC50, IC50, 2 x IC50, and 4 x IC50 was added to the well containing infected RBC in triplicate. The plate was incubated in a humidified incubator with 5% CO2, 5% O2, and 90% N2. After 96 h, 100 μl of a lysis buffer containing SYBR Green I was added to each well. The plate was wrapped with aluminum foil to avoid direct light exposure and incubated at room temperature. After incubation for 6 h, fluorescence values were measured using a fluorescence spectrophotometer (Fluoroskan Ascent, Thermo Fisher Scientific, USA) with the excitation and emission wavelength at 485 nm and 518 nm, respectively. The fluorescence data were subtracted from the negative control and used to calculate the IC50.
(§4) The IC50 of 17-DMAG, DA, and AV was calculated from the percentage of inhibition on the in vitro multiplication of all tested species using non-linear regression (curve fit), available in GraphPad Prism (GraphPad Software Inc., USA). Combination index (CI) values for the drug combination were calculated using CompuSyn software ([Chou, 2006]). Since the chemotherapy effect is preferable at the highest inhibition, the degree of synergism was determined as the weighted average of CI values using a formula ((1 x IC50) + (2 x IC75) + (3 x IC90) + (4 x IC95))/10 ([Chou, 2006]). The differences among groups regarding the parasitemia, hematology profiles, and body weight in the B. microti–infected mouse model were analyzed using Student's t-test, available in GraphPad Prism software.

[5] = system: B. caballi (USDA strain); test: as above; format: cell-based, Babesia caballi; details: B. caballi, 96 h, triplicate, mean ± SD; read-out: IC50 on in vitro culture of parasites
Method: as §2, §3, §4

[6] = system: B. bovis (Texas strain); test: as above; format: cell-based, Babesia bovis; details: B. bovis, 96 h, triplicate, mean ± SD; read-out: IC50 on in vitro culture of parasites
Method: as §2, §3, §4

[7] = system: B. bigemina (Argentina strain); test: as above; format: cell-based, Babesia bigemina; details: B. bigemina, 96 h, triplicate, mean ± SD; read-out: IC50 on in vitro culture of parasites
Method: as §2, §3, §4

[8] = system: B. microti (Munich strain); test: inhibition assay using a B. microti-infected mouse model; format: in vivo, BALB/c mice; details: 17-DMAG 30, DA 25, AV 20 mg/kg BW; 17-DMAG + DA 15 + 15, 17-DMAG + AV 15 + 10, DA + AV 15 + 10 mg/kg BW; 5 consecutive days
Method: B. microti (Munich strain) was recovered from -80 °C stock in two 6-week female Balb/c mice (Clea, Japan). The parasitemia was monitored every 2 days. […] The inhibitory effect of 17-DMAG was also determined using a B. microti mouse model according to the previous protocol ([Goo et al., 2010]). Briefly, 35 female BALB/c mice aged 8 weeks received an intraperitoneal injection of 1 × 10^7 of B. microti-infected RBC and were divided into seven groups. Another group consisting of five mice was kept uninfected and untreated as a control. The multiplication of B. microti was observed from blood smears after staining with Giemsa using a light microscope. The drug treatment was initiated to all infected mice on day five, after the parasitemia reached approximately 1%, and continue to the total of five consecutive days. Group 1 was treated with 4% DMSO in saline water as a control intraperitoneally. […] The parasitemia was estimated from Giemsa-stained blood smears using microscopy in approximately 5000 RBC. Furthermore, the hematology profiles including RBC, hemoglobin, and hematocrit were measured from 10 μl of mouse blood using an automatic hematology analyzer (Celltac α MEK-6450, Nihon Kohden, Tokyo, Japan). The rate of parasitemia, hematology profiles, and mouse body weight was monitored for 60 days. The experiment was repeated once so each group contained 10 mice. […] Combination index (CI) values for the drug combination were calculated using CompuSyn software ([Chou, 2006]). […] The differences among groups regarding the parasitemia, hematology profiles, and body weight in the B. microti-infected mouse model were analyzed using Student's t-test, available in GraphPad Prism software. The difference was considered significant if P < 0.05.

[9] = at a concentration of 40 μM, separate assay

Compound	solubility [1]	IC50 ([2]; NIH/3T3, 24 h exposure, CCK-8, read-out: IC50 on cell line NIH/3T3) [nM]	inhibition on NIH/3T3 cell viability [2, 9]	IC50 ([3]; MDBK, 24 h exposure, CCK-8, read-out: IC50 on cell line MDBK) [nM]	inhibition on MDBK cell viability [3, 9]	IC50 [4] [nM]	IC50 [5] [nM]	IC50 [6] [nM]	IC50 [7] [nM]	day p.i. on which parasite no longer detected in blood smears via microscopy (parasite clearance) [8] [day p.i.]
C=CCNC1=C2C[C@@H](C)C[C@H](OC)[C@H](O)[C@@H](C)/C=C(\C)[C@H](OC(N)=O)[C@@H](OC)/C=C\C=C(/C)C(=O)NC(=CC1=O)C2=O [17-AAG, 17-N-allylamino-17-demethoxygeldanamycin]	poor solubility									
CC(=O)NCC(=O)O.CC(=O)NCC(=O)O.N=C(N)c1ccc(N=NNc2ccc(C(=N)N)cc2)cc1 [DA, diminazene aceturate]		> 40000	did not show any inhibition	> 40000	did not show any inhibition	378 ± 39.3	13.4 ± 3.6	190 ± 42.1	1850 ± 104	≤ 28
COC1=C2C[C@@H](C)C[C@H](OC)[C@H](O)[C@@H](C)/C=C(\C)[C@H](OC(N)=O)[C@@H](OC)/C=C\C=C(/C)C(=O)NC(=CC1=O)C2=O [geldanamycin]	poor solubility									
